Measurements taken from patent US11771705B2, “Adjuvant therapy for use in prostate cancer treatment” (priority 2017, dated 2023).
Read-outs that look alike come from different tables or passages of the source.

How the values were obtained:
[1] = assay type: in vivo, male patients; details: average of Day 7 and Day 14
Procedure: For each group dosed at 2, 10, 20, 40 and 60 mg estetrol daily (oral administration), 7 to 10 male patients were tested for their plasma content in estetrol at Day 7 and at Day 14. For each dose group, the average trough level of all patients across both days was calculated.

[2] = assay type: in vivo, healthy men
Procedure: A phase I, double-blind, randomised, placebo-controlled, multiple dose study to evaluate the safety, pharmacokinetics and pharmacodynamics of multiple dosages of estetrol in healthy men.
Male participants aged between 40 and 70 years were allocated to one of the following groups: • Group 1: 20 mg E4 (estetrol) or placebo; • Group 2: 40 mg E4 (estetrol) or placebo; • Group 3: 60 mg E4 (estetrol) or placebo.
A total of 15 subjects were assigned to each dose group: 10 subjects were randomised to receive the active treatment (E4), 5 subjects were randomised to receive placebo treatment. In total […] participated in this study.
Dosing began with Group 1. The other groups were dosed consecutively. Dose escalation to the next E4 dose group proceeded based on reported adverse events (AEs), SHBG levels, lipids and haemostatic parameters. The decision to continue with the next higher E4 dose level was made by the Investigator, an independent expert and the Sponsor.
E4 was supplied as tablets and taken orally every morning between 8:00-10:00 am, for 28 days. The total duration of the study, including screening was 84 days for each subject (Screening from Day −28 till Day −1, Clinical part from Day 1 till Day 56).
There were two primary outcome parameters in this study. First primary parameter was the safety evaluation of E4. Safety variables included vital signs, routine laboratory tests, physical examination, ECG measurement and monitoring of (S)AEs.
Second primary parameter was the hormones related to prostate function. FSH, LH, E2, total testosterone, free testosterone and sex hormone-binding globulin (SHBG) were measured.
Secondary parameters included other pharmacodynamic and pharmacokinetic parameters. The pharmacodynamic parameters which were assessed are the following: • Haemostatic factors: (extrinsic) APC-resistance, prothrombin fragment 1+2, free tissue factor pathway inhibitor (TFPI), antithrombin activity, protein S activity, D-dimer, angiotensinogen; • Lipids and lipoproteins: total cholesterol, triglycerides, HDL-cholesterol, LDL-cholesterol and lipoprotein(a) (Lp(a)); • Carbohydrates: fasting serum glucose; • Bone turnover markers: osteocalcin, type I collagen telopeptide (CTX-1) and parathyroid hormone (PTH); • Prostate-specific antigen (PSA).
Pharmacokinetics were evaluated by measuring E4 trough levels on Day 2, 7, 14 and 28. Furthermore, on Day 28 before and at several time points after dosing E4 concentrations were measured.

[3] = system: adenocarcinoma of the prostate; assay: Estetrol on testosterone suppression and quality of life in prostate cancer patients treated with ADT (Example 4); assay type: in vivo, male patients; details: GnRH agonist plus 40 mg estetrol monohydrate p.o. per day, 24 weeks
Procedure: Male patients who have histologically confirmed adenocarcinoma of the prostate and who are qualifying for treatment with androgen deprivation therapy (ADT: GnRH agonist) participate in randomized placebo controlled study. Randomisation takes place after a patient is found to be eligible at the baseline visit. Subjects receive the study medication for a period of 24 weeks in total. Subjects receive blinded study medication: • Investigational product: GnRH agonist plus 40 mg estetrol monohydrate (E4) p.o. per day; • Placebo: GnRH agonist plus placebo. Selection of the GnRH agonist is left to the doctors treating the individual patients. Medication is taken in the morning between 8:00-10:00 AM. A total of 60 patients is dosed as follows: 40 patient in the estetrol group and 20 patients in the reference therapy group (placebo). Effects of medication on total T, free T, SHBG, hot flushes, PSA response, endocrine parameters, adrenal androgens and the lipid profile are assessed. Further assessed are the effects on health related quality of life (using the Functional Assessment of Cancer Therapy Prostate (FACT-P) questionnaire and a small questionnaire on the presence and absence of endocrine related symptoms (Q-man questionnaire)) and effects on bone turnover (bone markers).

[4] = 20 mg or 40 mg daily, cited from earlier work
[5] = system: adenocarcinoma of the prostate; assay: Estetrol in prostate cancer patients treated with ADT, randomized placebo controlled (Example 3); assay type: in vivo, male patients; details: GnRH agonist plus 40 mg estetrol per day oral, 24 weeks
Excerpt: Male patients who have histologically confirmed adenocarcinoma of the prostate and who are qualifying for treatment with androgen deprivation therapy (ADT: GnRH agonist) are included. The study is randomized placebo controlled.
Randomisation takes place after a patient is found to be eligible at the baseline visit. Subjects receive the study medication for a period of 24 weeks in total.
Subjects receive blinded study medication (oral administration) as follows: • Investigational product: GnRH agonist plus 40 mg estetrol (E4) per day; • Placebo: GnRH agonist plus placebo.
Medication should be taken in the morning between 8:00-10:00 AM. All patients concomitantly receive a prophylactic dose of dabigatran (220 mg once daily) or another anticoagulant.
A total of 30 patients is being dosed as follows: 20 patient in the estetrol group and 10 patients in the reference therapy group (placebo).
The primary objective is to assess the additional effects of E4 on total T and free T. Secondary objectives include the assessment of the effects of E4 on SHBG, PSA response and lipids and lipoproteins. […]

[6] = Day 28 vs Day 1, 20, 40, 60 mg daily

C[C@]12CC[C@@H]3c4ccc(O)cc4CC[C@H]3[C@@H]1[C@@H](O)[C@@H](O)[C@@H]2O [estetrol]
Trough plasma level ([1]; daily oral dose 2 mg): 198 pg/mL
Trough plasma level ([1]; daily oral dose 10 mg): 1056 pg/mL
Trough plasma level ([1]; daily oral dose 20 mg): 2187 pg/mL
Trough plasma level ([1]; daily oral dose 40 mg): 4417 pg/mL
Trough plasma level ([1]; daily oral dose 60 mg): 6157 pg/mL
HDL Cholesterol [2, 6]: small increase
Lowering effect on LDL Cholesterol [2, 6]: about 20%
TG (triglycerides) [2, 6]: no changes
Free testosterone level ([2]; Day 28 vs Day 1, 20, 40, 60 mg daily (FIG. 1A)): decreased
Total testosterone level ([2]; Day 28 vs Day 1, 20, 40, 60 mg daily (FIG. 1B)): decreased
SHBG level ([2]; Day 28 vs Day 1, 20, 40, 60 mg daily (FIG. 1C)): increase
LH level ([2]; Day 28 vs Day 1, 20, 40, 60 mg daily (FIG. 1D)): not much change
FSH levels ([2]; Day 28 vs Day 1, 20, 40, 60 mg daily (FIG. 1E)): decreased
Effects on bone (osteocalcin, CTX-1) ([2]; Day 28 vs Day 1, 20, 40, 60 mg daily (FIGS. 2I, 2J)): beneficial estrogenic effects
Changes in vital signs, ECG, physical examination and body weight ([2]; daily oral dose of 20 mg, 40 mg or 60 mg for 28 days): No clinically relevant changes
Tolerability ([2]; daily oral dose of 20 mg, 40 mg or 60 mg for 28 days, healthy men aged 40-70 years): well tolerated
LH levels after E4 administration ([2]; shortly after dosing, only for a few hours): decreased
Efficacy of ADT [3]: improves efficacy of ADT
Quality of life of the prostate cancer patients [3]: improves quality of life
Libido decreased during treatment ([4]; both cohorts): 8 of 20
Nipple tenderness reported ([4]; both cohorts): 7 of 20
Body weight and safety parameters ([4]; healthy men 40-70 years): did not change
Estradiol level ([4]; healthy men 40-70 years): decreased
FSH level ([4]; healthy men 40-70 years): decreased
Free testosterone level ([4]; healthy men 40-70 years): decreased
LH levels ([4]; healthy men 40-70 years): did not change
SHBG levels ([4]; healthy men 40-70 years): increased
Total testosterone level ([4]; healthy men 40-70 years): decreased
Efficacy and quality of life of ADT treatment for prostate cancer [5]: effective therapy to improve efficacy and quality of life
